Results reported in patent US20040219508A1, “Screening, quantitation and identification of active ingredients in natural products” (Sloan-Kettering Institute for Cancer Research, priority 2002, published 2004).

Columns and labels:
HepG2 hepatoma cells = conditions: continuous exposure, 1 to 50 μM; cited from earlier work
[1] = cited from earlier work
[2] = human, in vivo
Description: Pharmacokinetic studies (PK). Bloods for pharmacokinetic studies (PK) will be performed on days 1, 2, 8, 15 and 29 of treatment. Repeated bloods for PK will be drawn on day #1 only, before the daily dose (time=0), 1 hour after, and 2,4, 6, 8 and 24 hours after the first dose of huanglian. On all other days, a single PK blood sample will be drawn, to measure steady state levels of the drug. For these studies 10 ml of heparinized blood (green stopper vacutainer tube) will be collected. Plasma samples (PK) will be sent for pharmacokinetic measurements of huanglian peaks.
Pharmacokinetic (PK) and surrogate marker studies: Since berberine represents approximately 50% of the herb, PK measurements were being conducted of berberine by HPLC. However, only very low levels of berberine (<50 ng/ml) have been detected in the plasma of any patient on the study. Also being tested is plasma collected from patients on day #15 of therapy to determine if the patient's own plasma will inhibit cancer cell growth of the gastric cancer cell line MKN-74 ex vivo, as determined by SRB assays. For these studies, the patient's plasma is concentrated and the MKN-74 cells are exposed to the patient's own plasma for either 2 (II) or 4 (IV) days before the tumor cells are assayed for growth inhibition. As shown for the patient treated in cohort 3 (see graph below), the patient's own pretreatment plasma (day 0) was capable of inhibiting MKN-74 cell growth, even though the patient had been off all chemotherapy for at least 4 weeks. Three separate samples were then drawn on day 15 of treatment at 8:30 AM, 9:30 AM, and 12:30 PM. […] The last lanes show the positive control of media “spiked” with huanglian (HL) at a concentration of 20 μg/ml and exposed to MKN-74 cells for both 2 and 4 days. This degree of growth suppression confirms the activity of the herb from the capsules.

MKN-74 = assay: MTT growth assay; type: cell-based, human; conditions: 10 μg/ml berberine
Description: The cells were treated on day 0 with huanglian and then cell viability in the continued presence or absence (control) of drug was determined for the subsequent 5 days (days 1 to 5) by the MTT (3-(4,5-dimethythiazol-2-yl)-2-5-diphenyltetratrazolium bromide) assay. In this colorometric assay the absorbance of converted dye is measured at a wavelength (OD) of 550 nm and the increased absorbance is directly proportional to cell viability.
Since berberine constitutes the major fraction of huanglian (25%), a 10 μg/ml solution of berberine was tested to determine the degree to which it inhibited proliferation of the MKN-74 cells.

[3] = dogs; cited from earlier work
[4] = cited from earlier work; remark: listed apart in the source
[5] = Metabolism by human liver S9 microsomes, HPLC/UV; type: in vitro ADME; conditions: extract 3 μ/ml, S9 1 mg/ml with NADPH
Description: Since oral drugs are metabolised by a “first-pass” through the liver, we also elected to determine whether huanglian would be metabolised in vitro by human liver S9 microsomes (Gentest, MA). This assay creates metabolites of a drug that are equivalent to those formed on a “first-pass” through the liver. For these studies, the huanglian extract, at a final concentration of 3 μ/ml, was exposed to human liver S9 microsomes at 1 mg/ml with NADPH. The microsomal extracts obtained in this assay were then analyzed by HPLC and UV spectroscopy.

MKN-74 cells = assay: Flow cytometry with MPM-2 labeling after nocodazole synchronisation; type: cell-based, human
Excerpt: Activation of cyclin B1 associated cdc2 kinase by mitotic inhibitors including paclitaxel induces an increased accumulation of cells into the M phase of the cell cycle (12). Thus, a decrease in cyclin B1 associated kinase activity should prevent cells from entering M and results in an accumulation of cells in G2. It should also force cells in M to exit M and continue to cell cycle. Experiments were designed to test this in the MKN-74 cells by flow cytometry and labeling of cells with the MPM-2 antibody which identifies cells in mitosis. This is difficult to assess in asynchronous cells. So as to better document accumulation of cell in G2, experiments were designed to first synchronise the cells with nocodazole in the M phase (e.g. mitotic block).

Row | SMILES | tumor cell growth (HepG2 hepatoma cells) | clinical effect at higher plasma concentration ([1]; berberine plasma concentrations >0.11 mg/L) | side effects ([1]; by mouth, 1.2 gm/d for two weeks, 56 patients) | Plasma B [2] [µg/mL] | berberine in plasma by HPLC [2] | berberine level in plasma [2] [ng/mL] | inhibition of cell proliferation (MKN-74) | cardiovascular effects [3] | facial flushing ([4]; 12 patients) [patients] | transient nausea ([4]; 12 patients) [patients] | QTc interval ([4]; after berberine, returned to baseline after 24 hours) | hemodynamic effects ([4]; i.v. 0.2 mg/kg/min over 30 minutes) | ventricular tachycardia with torsades de pointes morphology, patients ([4]; within 1-20 hours of the infusion) | change of HPLC peaks after liver microsome treatment [5] | cells remaining in M (MKN-74 cells; nocodazole for 12 hours (NOC12)) [%] | cells remaining in M (MKN-74 cells; nocodazole, then drug free medium 24 hours (NOC12→(−)24)) [%]
1 | COc1ccc2cc3[n+](cc2c1OC)CCc1cc2c(cc1-3)OCO2 [berberine] | inhibits tumor cell growth in a dose-dependent manner | more significant increase in LVEF and decrease in the frequency and complexity of ventricular premature beats | no side effects or arrythmogenesis | 0 to 0.024 | non-measurable by HPLC | < 50 | not able to inhibit cell proliferation to the same degree as either the huanglian or its metabolites | positive inotropic effects and lower peripheral vascular resistance | 2 | 2 | consistently elevated in all 12 patients | decrease in pulmonary and systemic vascular resistance and an increase in cardiac index and ejection fraction | Four of 12 | decreased only slightly |  | 
2 | COC(=O)Nc1nc2ccc(C(=O)c3cccs3)cc2[nH]1 [nocodazole] |  |  |  |  |  |  |  |  |  |  |  |  |  |  | 41 | 16
